In patent publication US6881414B2, “Mild cosmetic composition with stabilized retinoids” (Unilever Home & Personal Care USA, division of Conopco, Inc., priority 2000, dated 2005):

What was measured:
TGase I in keratinocytes = assay: Transglutaminase (TGase I) ELISA assay in cultured keratinocytes; assay type: cell-based; settings: added effect of booster+retinol induced TGase inhibition over retinol alone
Method: An ELISA based TGase I assay, using a TGase I antibody, was used to assess the state of differentiation of the cultured keratinocytes in the examples that follow.
Keratinocytes (cultured as described above) were plated in 96 well plates at a density of 4,000-5,000 cells per well in 200 μl media. After incubation for two to three days, or until cells are ˜50% confluent, the media was changed to media containing test compounds (five replicates per test). The cells were cultured for a further 96 hours after which time the media was aspirated and the plates stored at −70° C. Plates were removed from the freezer, and the cells were washed twice with 200 μl of 1×PBS. The cells were incubated for one hour at room temperature (RIT) with TBS/5% BSA (wash buffer, bovine serum albumin). Next the TGase primary antibody was added: 50 μl of monoclonal anti-Tgase I Ab B.C. diluted 1:2000 in wash buffer. The primary antibody was incubated for 2 hours at 37° C. and then rinsed 6× with wash buffer. Cells were then incubated with 50 μl of secondary antibody (Fab fragment, peroxidase conjugated anti-mouse IgG obtaining from Amersham) diluted 1:4,000 in wash buffer for two hours at 37° C., then rinsed three times with wash buffer. Following the rinse with washing buffer, the cells were rinsed 3× with PBS. […] TGase levels were determined and expressed as percentage control.

LRAT = molecular target: T1, LRAT (Bos taurus, UniProt Q9BGL2); assay: LRAT activity assay, RPE microsomes (to identify B1); assay type: biochemical, bovine; settings: for % Inhibition LRAT (10 μm): compound 10 μm; for % Inhibition LRAT (100 μm): compound 100 μm
T1 construct: followed by approximately 15 μg of RPE microsomal protein; tissue W. L. Lawson Co; host or cells: bovine retinal pigment epithelium microsomes
T1 sequence (Q9BGL2 1-230): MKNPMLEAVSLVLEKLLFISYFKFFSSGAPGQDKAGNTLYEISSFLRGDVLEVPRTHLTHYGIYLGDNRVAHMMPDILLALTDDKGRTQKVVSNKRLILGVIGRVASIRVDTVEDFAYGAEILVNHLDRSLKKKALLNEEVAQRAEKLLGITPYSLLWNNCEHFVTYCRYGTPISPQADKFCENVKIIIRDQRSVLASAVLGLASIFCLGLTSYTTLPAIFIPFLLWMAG
Method: 50 frozen hemisected bovine eyecups, with the retina and aqueous humor removed were obtained from W. L. Lawson Co., Lincoln, Nebr., U.S.A. The eyes were thawed overnight and the colored iridescent membrane was removed by peeling with forceps. […] The cell suspension was added to the iridescent membranes and the suspension was stirred for several minutes in a beaker with a Teflon stir bar. The suspension was filtered through a coarse filter (Spectra/Por 925 μl pore size polyethylene mesh) to remove large particles, and the resulting darkly colored suspension was homogenized using a Glas-Col with a motor driven Teflon homogenizer. The cell homogenate was centrifuged for 30 min. at 20,000 g (Sorvaal model RC-5B centrifuge with an SS34 rotor in 2.5×10 cm tubes at 14,000 RPM). The resulting supernatant was subjected to further centrifugation for 60 min. at 150,000 g (Beckman model L80 Ultracentrifuge with an SW50.1 rotor in 13×51 mm tubes at 40,000 RPM). The resulting pellets were dispersed into ˜5 mL 0.1M PO4/5 mM DTT, pH 7 buffer using a Heat Systems Ultrasonics, Inc. model W185D Sonifier Cell Disruptor, and the resulting microsomal dispersion was aliquoted into small tubes and stored at −70° C. The protein concentrations of the microsomes were determined using the BioRad Dye binding assay, using BSA as a standard.
2.3 Assay for ARAT and LRAT Activity (To Identify B1)
The following buffer was prepared and stored at 4° C.: 0.1M PO4/5 mM dithiothreitol, pH 7.0 (PO4/DTT). On the day of the assay, add 2 mg BSA per mL of buffer to give a PO4/DTT/BSA working buffer. 1 mM retinol substrate was prepared in acetonitrile and stored in amber bottles under nitrogen gas at −20° C. Solutions of 4 mM Palmitoyl-CoA in working buffer (stored in aliquots) and 4 mM dilauroyl phosphatidyl choline in ethanol were prepared and stored at −20° C. Inhibitors were prepared as 10 mM stock solutions in water, ethanol, acetonitrile or DMSO. The quench solution was prepared using pure ethanol containing 50 μg/mL butylated hydroxytoluene (BHT), and a hexane solution containing 50 μg/mL BHT was used for the extractions.
Incubate for 5 min. at 37° C. to equilibrate the reaction temperature and then add 5 μl 1 mM retinol. Cap the vials, vortex for 5 seconds and incubate for 30-90 minutes at 37° C. Quench the reaction by adding 0.5 mL ethanol/BHT. Extract the retinoids by adding 3 mL hexane/BHT, vortex the tubes for several seconds several times and centrifuge the tubes at low speed for 5 min. to quickly separate the layers. Remove the upper hexane layer into a clean vial, and re-extract the aqueous layer with another 3 mL hexane/BHT, as described above. Combine the hexane layers and evaporate the hexane by drying at 37° C. under a stream of nitrogen gas on a heated aluminum block. Store the dried residue at −20° C. until HPLC analysis. Quantitate the amount of retinyl palmitate and retinyl laurate for ARAT and LRAT activity, respectively, by integration of the HPLC signal as described below.
Note that the incubation solution contains 40 μM acyl donor, 100 μM or less inhibitor, 10 μM retinol, approximately 30 μg/mL microsomal protein, and nearly 0.1M PO4, pH 7/5 mM DTT/2 mg/mL BSA. […]
Samples for retinoid quantitation by HPLC were prepared by dissolving the residue in each vial with 100 μL of methanol. […] Aliquots of 60 μL were injected immediately and analyzed for retinoid content.
Two HPLC protocols were used for retinoid analysis. […] The column eluate was monitored from 300 nm to 400 nm.

CRABPII = molecular target: T2, CRABPII (Homo sapiens, UniProt P29373); assay: CRABPII antagonist radioactive binding assay (to identify B4); settings: competition with radioactive all trans retinoic acid; ligand excess ratio not given
T2 construct: made in house; host or cells: E. coli BLR(DE3)pLysS
T2 sequence (P29373 1-138): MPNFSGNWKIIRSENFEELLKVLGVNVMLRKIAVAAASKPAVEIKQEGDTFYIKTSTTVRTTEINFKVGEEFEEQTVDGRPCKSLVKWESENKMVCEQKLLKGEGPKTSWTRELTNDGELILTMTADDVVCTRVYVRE
Description: 2.6 Assay for CRABPII Antagonists (To Identify B4)
2.6.1. Synthesis of CRABPII
The gene CRABPII was cloned in pET 29a-c(+) plasmid (Novagen). The cloned gene was under control of strong bacteriophage T7 transcription and translation signals. The source of T7 polymerase was provided by the host cell E.coli BLR(DE3)pLysS (Novagen). The latter has a chromosomal copy of T7 polymerase under lacUV5 control, induced by the presence of IPTG.
The plasmid was transferred into E. coli BLR(DE3)pLysS cells by transformation according to the manufacturer protocol (Novagen).
An overnight culture of the transformed cells was diluted 1:100 into 2×YT containing 50 μg/mL kanamycin and 25 μg/mL chloramphenicol. The cells grew while shaking at 37° C. until the OD at 600 nm reached 0.6-0.8. Then IPTG was added to a final concentration of 1 mM and the culture was incubated for an additional two hours. The cells were harvested by centrifugation at 5000 g for 10 minutes at room temperature. The pellet was stored at −20° C.
Purification was performed according to the method described in A. W. Norris & E. Li, Generation and characterization of cellular retinoic acid-binding proteins from Escherichia coli expression systems”. Methods Enzymol. 282:3-13 (1997).
The frozen pellet was thawed at RT and resuspended in 1-2 pellet volumes of freshly prepared lysis buffer (50 mM Tris-HCl, pH 8, 10% (w/v) sucrose, 1 mM EDTA, 0.05% (w/v) sodium azide, 0.5 mM DTT, 10 mM MnCl2, 2.5 mM phenylmethylsulfonyl fluoride, 2.5 mM benzamidine, 6 μg/mL DNase). The lysate was incubated for 30 min at room temperature. Further lysis was accomplished by sonication (six 30-sec bursts at […] alternated with five 30-sec delay on ice). […]
The supernatant from step a. was loaded onto a 2.5×100 cm column of sephacryl S-300 (Pharmacia) at room temperature. […] Collected 2-mL fractions were checked for ultraviolet absorbance at 280 nm. […]
For the competitive assay, another ligand in excess (6670:1, 670:1 or 70:1) was added to the mix. […] The radioactivity of the filtrate was measured by scintillation counter.

[1] = Retinoid solubility in oil (UV spectroscopy of filtrate); assay type: physicochemical
Method: As an illustration, solubility of retinol crystals in varying oils is as follows:
Retinoid solubility in oil is determined by the following procedure. A known weight of pure retinoid in excess of the expected solubility limit in the oil is added in an oil. Methanol is added to the mixture to dissolve all retinoid crystals. Nitrogen sparging is used to ensure all methanol was evaporated from the oil. Retinoid is allowed to recrystallize overnight. The sample is filtered through a 0.45 micron filter. Known dilutions of the filtrate in isopropanol are measured by UV spectroscopy at an appropriate wavelength (325 nm for retinol) and the concentration of retinoid determined against calibration standards of retinoid in isopropanol.

CN1CCN(C)C1=O [Dimethyl Imidazolidinone]
% Inhibition Overall TG (- ROH/RE) (TGase I in keratinocytes): 22%

CC(/C=C/C=C(\C)C(=O)O)=C\C=C\C=C(C)\C=C\C=C(/C)C(=O)O [Crocetin]
% Inhibition LRAT (10 μm) (LRAT): 0%

CCCCCCCC/C=C/CCCCCCCC(=O)O [Elaidic Acid]
% Inhibition CRABPII (CRABPII): >50%

CCCCC/C=C\C/C=C\CCCCCCCC(=O)N(CCO)CCO [Linoleamide-DEA, Linoleoyl Diethanolamide]
% Inhibition Overall TG (- ROH/RE) (TGase I in keratinocytes): 59%

O=C(O)CCCCCCCCCCCCCCC(=O)O [Hexadecanedioic Acid]
% Inhibition CRABPII (CRABPII): >50%

CC(C)CCCCCCCCCCCCCCC(=O)O [Isostearic Acid]
% Inhibition CRABPII (CRABPII): >50%

C=CC(C)(O)CCC=C(C)C (centres unmarked) [Linatool]
% Inhibition LRAT (100 μm) (LRAT): 0%

CC(C)=CCC/C(C)=C/CC/C(C)=C/CC/C(C)=C/CO [Geranyl Geraniol]
% Inhibition LRAT (10 μm) (LRAT): 16% +/− 9

O=C1C[C@@H](c2ccc(O)cc2)Oc2cc(O)cc(O)c21 [Naringenin]
% Inhibition LRAT (100 μm) (LRAT): 14%

CC(C)=CCCC(C)=CCCC(C)=CCO [Farnesol]
% Inhibition LRAT (10 μm) (LRAT): 10% +/− 7

CC1=C(/C=C/C(C)=C/C=C/C(C)=C/CO)C(C)(C)CCC1 [retinol]
Solubility of retinol crystals in oil ([1]; in C12-15 Alkyl benzoate): 85 wt % | Solubility of retinol crystals in oil ([1]; in Cetiol OE): 80 wt % | Solubility of retinol crystals in oil ([1]; in Cyclomethicone): 2.7 wt % | Solubility of retinol crystals in oil ([1]; in Dimethicone): 0.49 wt % | Solubility of retinol crystals in oil ([1]; in Isostearyl palmitate): 44 wt % | Solubility of retinol crystals in oil ([1]; in Mineral oil): 34.2 wt % | Solubility of retinol crystals in oil ([1]; in Triolein/Squalene (6:1)): 56.4 wt %
